# Source: ChEMBL document CHEMBL4007388, “Synthesis and antiproliferative activity of monocationic arylthiophene derivatives” (Eur J Med Chem, 2017)
# Tests used:
# [1] = Antioxidant activity assessed as superoxide dismutase-like activity by measuring inhibition of superoxide radical anion production at 2 uM by NBT reduction assay relative to control; assay type: functional
# Escherichia coli = assay: Induction of Escherichia coli genomic DNA cleavage after 1 hr by agarose gel electrophoresis method
# WISH = assay: Cytotoxicity against human WISH cells assessed as reduction in cell viability after 24 hrs by MTT assay; assay type: cell-based
# WI-38 = assay: Cytotoxicity against human WI38 cells assessed as reduction in cell viability after 24 hrs by MTT assay; assay type: cell-based; details: WI-38, 24 h
# HL-60(TB) = assay: Growth inhibition of human HL-60(TB) cells incubated for 48 hrs by sulforhodamine B assay; assay type: functional; details: HL-60, 48 h
# A549 = assay: Growth inhibition of human A549/ATCC cells incubated for 48 hrs by sulforhodamine B assay; assay type: functional; details: A549, 48 h
# SK-MEL-28 = assay: Growth inhibition of human SK-MEL-28 cells incubated for 48 hrs by sulforhodamine B assay; assay type: functional; details: SK-MEL-28, 48 h
# ACHN = assay: Growth inhibition of human ACHN cells incubated for 48 hrs by sulforhodamine B assay; assay type: functional
# CAKI-1 = assay: Growth inhibition of human Caki1 cells incubated for 48 hrs by sulforhodamine B assay; assay type: functional; details: CAKI-1, 48 h
# COLO 205 = assay: Growth inhibition of human COLO205 cells incubated for 48 hrs by sulforhodamine B assay; assay type: functional; details: COLO 205, 48 h
# SW-620 = assay: Growth inhibition of human SW620 cells incubated for 48 hrs by sulforhodamine B assay; assay type: functional; details: SW-620, 48 h
# NCI-H23 = assay: Growth inhibition of human NCI-H23 cells incubated for 48 hrs by sulforhodamine B assay; assay type: functional; details: NCI-H23, 48 h
# BT-549 = assay: Growth inhibition of human BT549 cells incubated for 48 hrs by sulforhodamine B assay; assay type: functional; details: BT-549, 48 h
# UACC-257 = assay: Growth inhibition of human UACC257 cells incubated for 48 hrs by sulforhodamine B assay; assay type: functional; details: UACC-257, 48 h
# T47D = assay: Growth inhibition of human T47D cells incubated for 48 hrs by sulforhodamine B assay; assay type: functional
# UACC-62 = assay: Growth inhibition of human UACC62 cells incubated for 48 hrs by sulforhodamine B assay; assay type: functional; details: UACC-62, 48 h
# [2] = Growth inhibition of human NCI60 cells at 10 uM after 48 hrs by SRB assay relative to control; values are per cent of control; details: NCI60, 48 h
# MDA-MB-468 = assay: Growth inhibition of human MDA-MB-468 cells incubated for 48 hrs by sulforhodamine B assay; assay type: functional; details: MDA-MB-468, 48 h
# SR = assay: Growth inhibition of human SR cells incubated for 48 hrs by sulforhodamine B assay; assay type: functional
# SK-MEL-5 = assay: Growth inhibition of human SK-MEL-5 cells incubated for 48 hrs by sulforhodamine B assay; assay type: functional; details: SK-MEL-5, 48 h
# MDA-MB-435 = assay: Growth inhibition of human MDA-MB-435 cells incubated for 48 hrs by sulforhodamine B assay; assay type: functional; details: MDA-MB-435, 48 h
# HCT-116 = assay: Growth inhibition of human HCT116 cells incubated for 48 hrs by sulforhodamine B assay; assay type: functional; details: HCT-116, 48 h
# OVCAR-8 = assay: Growth inhibition of human OVCAR8 cells incubated for 48 hrs by sulforhodamine B assay; assay type: functional; details: OVCAR-8, 48 h
# SNB-19 = assay: Growth inhibition of human SNB19 cells incubated for 48 hrs by sulforhodamine B assay; assay type: functional; details: SNB-19, 48 h
# SK-OV-3 = assay: Growth inhibition of human SKOV3 cells incubated for 48 hrs by sulforhodamine B assay; assay type: functional; details: SK-OV-3, 48 h
# DU-145 = assay: Growth inhibition of human DU145 cells incubated for 48 hrs by sulforhodamine B assay; assay type: functional; details: DU-145, 48 h
# CCRF-CEM = assay: Growth inhibition of human CCRF-CEM cells incubated for 48 hrs by sulforhodamine B assay; assay type: functional
# NCI/ADR-RES = assay: Growth inhibition of human NCI/ADR-RES cells incubated for 48 hrs by sulforhodamine B assay; assay type: functional
# SK-MEL-2 = assay: Growth inhibition of human SK-MEL-2 cells incubated for 48 hrs by sulforhodamine B assay; assay type: functional; details: SK-MEL-2, 48 h
# NCI-H226 = assay: Growth inhibition of human NCI-H226 cells incubated for 48 hrs by sulforhodamine B assay; assay type: functional; details: NCI-H226, 48 h
# HCC 2998 = assay: Growth inhibition of human HCC2998 cells incubated for 48 hrs by sulforhodamine B assay; assay type: functional; details: HCC 2998, 48 h
# U-251 = assay: Growth inhibition of human U251 cells incubated for 48 hrs by sulforhodamine B assay; assay type: functional; details: U-251, 48 h
# HCT-15 = assay: Growth inhibition of human HCT15 cells incubated for 48 hrs by sulforhodamine B assay; assay type: functional; details: HCT-15, 48 h
# HT-29 = assay: Growth inhibition of human HT-29 cells incubated for 48 hrs by sulforhodamine B assay; assay type: functional; details: HT-29, 48 h
# RPMI-8226 = assay: Growth inhibition of human RPMI8226 cells incubated for 48 hrs by sulforhodamine B assay; assay type: functional; details: RPMI-8226, 48 h
# 786-0 = assay: Growth inhibition of human 786-O cells incubated for 48 hrs by sulforhodamine B assay; assay type: functional; details: 786-0, 48 h
# K562 = assay: Growth inhibition of human K562 cells incubated for 48 hrs by sulforhodamine B assay; assay type: functional; details: K562, 48 h
# NCI-H460 = assay: Growth inhibition of human NCI-H460 cells incubated for 48 hrs by sulforhodamine B assay; assay type: functional; details: NCI-H460, 48 h
# HOP-62 = assay: Growth inhibition of human HOP62 cells incubated for 48 hrs by sulforhodamine B assay; assay type: functional; details: HOP-62, 48 h
# Homo sapiens = organism: Homo sapiens; assay: Inhibition of PTK in human MCF7 cells at 1 uM preincubated for 2 hrs followed by poly-Glu-Tyr substrate addition by ELISA relative to control; assay type: cell-based
# MOLT-4 = assay: Growth inhibition of human MOLT4 cells incubated for 48 hrs by sulforhodamine B assay; assay type: functional; details: MOLT-4, 48 h
# PC-3 = assay: Growth inhibition of human PC3 cells incubated for 48 hrs by sulforhodamine B assay; assay type: functional; details: PC-3, 48 h
# SF-539 = assay: Growth inhibition of human SF539 cells incubated for 48 hrs by sulforhodamine B assay; assay type: functional; details: SF-539, 48 h
# SN12C = assay: Growth inhibition of human SN12C cells incubated for 48 hrs by sulforhodamine B assay; assay type: functional
# Hs-578T = assay: Growth inhibition of human Hs 578T cells incubated for 48 hrs by sulforhodamine B assay; assay type: functional
# SF-268 = assay: Growth inhibition of human SF268 cells incubated for 48 hrs by sulforhodamine B assay; assay type: functional; details: SF-268, 48 h
# KM12 = assay: Growth inhibition of human KM12 cells incubated for 48 hrs by sulforhodamine B assay; assay type: functional; details: KM12, 48 h
# TK-10 = assay: Growth inhibition of human TK10 cells incubated for 48 hrs by sulforhodamine B assay; assay type: functional; details: TK-10, 48 h
# HOP-92 = assay: Growth inhibition of human HOP92 cells incubated for 48 hrs by sulforhodamine B assay; assay type: functional; details: HOP-92, 48 h
# MCF7 = assay: Growth inhibition of human MCF7 cells incubated for 48 hrs by sulforhodamine B assay; assay type: functional; details: MCF7, 48 h
# SF-295 = assay: Growth inhibition of human SF295 cells incubated for 48 hrs by sulforhodamine B assay; assay type: functional; details: SF-295, 48 h
# LOX IMVI = assay: Growth inhibition of human LOXIMVI cells incubated for 48 hrs by sulforhodamine B assay; assay type: functional
# OVCAR-3 = assay: Growth inhibition of human OVCAR3 cells incubated for 48 hrs by sulforhodamine B assay; assay type: functional; details: OVCAR-3, 48 h
# NCI-H522 = assay: Growth inhibition of human NCI-H522 cells incubated for 48 hrs by sulforhodamine B assay; assay type: functional; details: NCI-H522, 48 h
# M14 = assay: Growth inhibition of human M14 cells incubated for 48 hrs by sulforhodamine B assay; assay type: functional; details: M14, 48 h
compound,measurement,setting,value
CN(C)c1ccc(-c2ccc(-c3ccc(C(=N)N)cc3)s2)cc1,inhibition,[1],58%
same,Activity,Escherichia coli,Dose-dependent effect
O=c1[nH]cc(F)c(=O)[nH]1 [FLUOROURACIL],IC50,WISH,7.1 µM
same,IC50,WI-38,9.3 µM
N=C(N)c1ccc(-c2ccc(-c3cc(Cl)cc(Cl)c3)s2)cc1,GI50,HL-60(TB),1.07 µM
same,GI50,A549,1.52 µM
same,GI50,SK-MEL-28,1.71 µM
same,GI50,ACHN,1.89 µM
same,GI50,CAKI-1,1.51 µM
same,IC50,WISH,156 µM
same,GI50,COLO 205,0.304 µM
same,GI50,SW-620,0.318 µM
same,GI50,NCI-H23,1.75 µM
same,GI50,BT-549,2.05 µM
same,GI50,UACC-257,2.48 µM
same,GI50,T47D,1.48 µM
same,GI50,UACC-62,1.55 µM
same,growth percent at 10 µM,[2],-70.3%
same,inhibition,[1],62.3%
same,GI50,MDA-MB-468,1.03 µM
same,GI50,SR,0.284 µM
same,GI50,SK-MEL-5,1.6 µM
same,GI50,MDA-MB-435,1.52 µM
same,GI50,HCT-116,0.468 µM
same,GI50,OVCAR-8,2.42 µM
same,GI50,SNB-19,1.2 µM
same,GI50,SK-OV-3,0.454 µM
same,GI50,DU-145,0.97 µM
same,GI50,CCRF-CEM,1.54 µM
same,GI50,NCI/ADR-RES,1.93 µM
same,GI50,SK-MEL-2,1.99 µM
same,GI50,NCI-H226,2.09 µM
same,GI50,HCC 2998,0.634 µM
same,GI50,U-251,0.254 µM
same,GI50,HCT-15,0.255 µM
same,GI50,HT-29,0.379 µM
same,GI50,RPMI-8226,0.639 µM
same,GI50,786-0,1.31 µM
same,GI50,K562,0.225 µM
same,GI50,NCI-H460,0.375 µM
same,GI50,HOP-62,1.69 µM
same,IC50,WI-38,138 µM
same,inhibition,Homo sapiens,19 to 36%
same,GI50,MOLT-4,1.18 µM
same,Activity,Escherichia coli,Dose-dependent effect
same,GI50,PC-3,1.75 µM
same,GI50,SF-539,1.97 µM
same,GI50,SN12C,1.57 µM
same,GI50,Hs-578T,2.05 µM
same,GI50,SF-268,1.63 µM
same,GI50,KM12,0.698 µM
same,GI50,TK-10,1.87 µM
same,GI50,HOP-92,1.71 µM
same,GI50,MCF7,0.193 µM
same,GI50,SF-295,1.38 µM
same,GI50,LOX IMVI,0.155 µM
same,GI50,OVCAR-3,1.7 µM
same,GI50,NCI-H522,2.35 µM
same,GI50,M14,1.54 µM
"N=C(N)c1ccc(-c2ccc(-c3cccs3)s2)cc1 [4-(2,2'-BITHIOPHENE-5-YL)BENZAMIDINE]",growth percent at 10 µM,[2],83.9%
N#Cc1ccc(-c2ccc(-c3ccc(Cl)cc3)s2)cc1F,inhibition,[1],35.3%
N#Cc1ccc(-c2ccc(-c3ccccc3)s2)cc1F,inhibition,[1],37.9%
COc1ccc(-c2ccc(-c3ccc(C#N)c(F)c3)s2)cc1,inhibition,[1],35%
N=C(N)c1ccc(-c2ccc(-c3cccs3)s2)cc1F,growth percent at 10 µM,[2],-72.5%
CN(C)c1ccc(-c2ccc(-c3ccc(C(=N)N)c(F)c3)s2)cc1,inhibition,[1],56.7%
same,Activity,Escherichia coli,Dose-dependent effect
